Measurements from patent US8614201B2 (Janssen Pharmaceutica NV, priority 2009, dated 2013).
Blank lines part the entries; values can stand above or below the molecule they belong to.

Target: Human TRPA1 (Homo sapiens, UniProt O75762)
Assay: Assay 1: In vitro cellular testing of TRPA1 modulation (CHO-TREx, Fluo-3 calcium fluorescence, AITC agonist)
Type: cell-based
Set-up: expressed in transfected cells; host or cells: CHO-TREx cells (Invitrogen), vector pcDNA4/TO
Conditions: CHO-TREx cells expressing human TRPA1; Fluo-3 fluorescence (FLIPR/Tetra); agonist 15 μM allyl isothiocyanate (AITC); 30 minute antagonist incubation
Protocol: Assay 1: In Vitro Cellular Testing of TRPA1 Modulation
Human TRPA1 (NCBI accession number NM_007332.1) was cloned into pcDNA4/TO. CHO-TREx cells (Invitrogen, Carlsbad, Calif.) were stably transfected with pcDNA4/TO-TRPA1 using lipofection to generate a clonal cell line that expressed human TRPA1 in a tetracycline-inducible manner. Culture medium used was Ham's F-12 supplemented with 10% fetal bovine serum, 2 mM L-glutamine, 5 μg/ml blasticidin and 200 μg/ml zeocin. Cells were seeded in black-walled clear-bottom 96-well plates at a density of 50,000 cells per well and cultured overnight at 37° C. with 5% CO2 in culture medium supplemented with 1 μg/ml tetracycline. On the day of the experiment, cells were washed 3 times with HEPES buffered saline (in mM: NaCl 137, MgCl2 0.5, KCl 2, dextrose 5, CaCl2 2 and HEPES 10; pH 7.4). Cells were then loaded with calcium-sensitive fluorescent dye by incubation in the presence of 4 μM Fluo-3 AM (TefLabs, Austin, Tex.) at room temperature in the dark for 60 minutes. After incubation with dye, cells were washed in assay buffer and, if appropriate, antagonists were added at this time. Following a further 30 minute incubation, cells were assayed using a Fluorometric Imaging Plate Reader (FLIPR™) or a Tetra (both manufactured by Molecular Devices, CA) to simultaneously monitor Fluo-3 fluorescence in all wells (λexcitation=488 nm, λemission=540 nm). Changes in fluorescence were monitored for 3 minutes after the addition of 15 μM allyl isothiocyanate (AITC) as an agonist. Concentration-dependence of receptor blocking was determined by exposing each well of cells in duplicate rows of a 96-well plate to a serial dilution of test compound. The concentration series usually started at 10 μM with a three-fold serial decrement in concentration. The magnitude of the response to agonist challenge was determined by measuring the fluorescence before and 3 minutes after the addition of the agonist. The degree of blocking was determined by comparing the response to that of negative (no added antagonist) and positive (10 μM ruthenium red) control wells. Data were analyzed using a non-linear regression program (Origin; OriginLab, MA) to fit the concentration-response data to a Hill function. Antagonist potencies were determined as the concentration required to produce 50% reduction in the response as compared to the negative and positive controls.

Sequence of Human TRPA1 (O75762 whole entry): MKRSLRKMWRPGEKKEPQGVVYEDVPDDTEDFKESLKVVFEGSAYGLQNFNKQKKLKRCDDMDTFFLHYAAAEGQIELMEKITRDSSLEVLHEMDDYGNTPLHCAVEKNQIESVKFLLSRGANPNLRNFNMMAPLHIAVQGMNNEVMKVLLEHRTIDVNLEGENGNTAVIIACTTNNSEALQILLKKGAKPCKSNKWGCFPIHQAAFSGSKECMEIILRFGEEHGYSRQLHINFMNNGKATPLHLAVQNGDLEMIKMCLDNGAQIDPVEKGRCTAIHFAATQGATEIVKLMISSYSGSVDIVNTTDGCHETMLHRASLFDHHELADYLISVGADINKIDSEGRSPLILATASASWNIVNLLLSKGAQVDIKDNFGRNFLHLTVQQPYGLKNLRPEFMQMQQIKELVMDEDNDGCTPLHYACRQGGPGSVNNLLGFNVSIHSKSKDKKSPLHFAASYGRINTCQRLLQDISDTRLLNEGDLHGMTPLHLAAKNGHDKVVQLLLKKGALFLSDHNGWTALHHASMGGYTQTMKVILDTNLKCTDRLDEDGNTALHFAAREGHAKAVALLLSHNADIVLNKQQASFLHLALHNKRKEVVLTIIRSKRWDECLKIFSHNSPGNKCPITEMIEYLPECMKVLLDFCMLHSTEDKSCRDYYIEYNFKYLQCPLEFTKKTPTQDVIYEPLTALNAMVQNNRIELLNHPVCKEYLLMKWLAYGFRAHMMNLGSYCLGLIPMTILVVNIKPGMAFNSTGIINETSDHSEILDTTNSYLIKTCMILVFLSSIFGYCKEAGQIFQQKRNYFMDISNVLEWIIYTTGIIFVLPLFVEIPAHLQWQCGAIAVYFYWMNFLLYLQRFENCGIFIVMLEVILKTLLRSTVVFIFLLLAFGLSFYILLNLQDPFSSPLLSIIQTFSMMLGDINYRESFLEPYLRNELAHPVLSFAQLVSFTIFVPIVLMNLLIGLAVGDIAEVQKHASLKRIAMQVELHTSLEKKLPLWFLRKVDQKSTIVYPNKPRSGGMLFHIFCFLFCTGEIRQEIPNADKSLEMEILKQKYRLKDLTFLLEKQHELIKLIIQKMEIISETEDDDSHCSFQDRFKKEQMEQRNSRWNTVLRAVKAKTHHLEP

SMILES: CC(NC(=O)[C@@H]1CCCN1S(=O)(=O)c1ccc(F)cc1)c1cc(-c2ccc(C(F)(F)F)cc2)ncn1 (single isomer, unassigned) [Example 181, (1S*,2S)-1-(4-Fluoro-benzenesulfonyl)-pyrrolidine-2-carboxylic acid {1-[6-(4-trifluoromethyl-phenyl)-pyrimidin-4-yl]-ethyl}-amide]
IC50: 602 nM

SMILES: CC(C)CN1CCN(c2nc(CNC(=O)[C@@H]3CCCN3S(=O)(=O)c3ccc(F)cc3)cc(-c3ccc(C(F)(F)F)cc3)n2)CC1 [Example 1, 1-(4-Fluoro-benzenesulfonyl)-pyrrolidine-2S-carboxylic acid [2-(4-isobutyl-piperazin-1-yl)-6-(4-trifluoromethyl-phenyl)-pyrimidin-4-ylmethyl]-amide]
IC50: 36 nM

SMILES: O=C(NCc1cc(-c2ccc(C(F)(F)F)cc2)nc(-c2cccnc2)n1)[C@@H]1CCCN1S(=O)(=O)c1ccc(F)cc1 [Example 3, 1-(4-Fluoro-benzenesulfonyl)-pyrrolidine-2S-carboxylic acid [2-pyridin-3-yl-6-(4-trifluoromethyl-phenyl)-pyrimidin-4-ylmethyl]-amide]
IC50: 108 nM

SMILES: O=C(NCc1cc(-c2ccc(C(F)(F)F)cc2)nc(-c2ccc(C(F)(F)F)cc2)n1)[C@@H]1CCCN1S(=O)(=O)c1ccc(F)cc1 [Example 4, 1-(4-Fluoro-benzenesulfonyl)-pyrrolidine-2S-carboxylic acid [2,6-bis-(4-trifluoromethyl-phenyl)-pyrimidin-4-ylmethyl]-amide]
IC50: 3 nM

SMILES: O=C(NCc1cc(-c2ccc(C(F)(F)F)cc2)nc(-c2ccccc2C(F)(F)F)n1)[C@@H]1CCCN1S(=O)(=O)c1ccc(F)cc1 [Example 6, 1-(4-Fluoro-benzenesulfonyl)-pyrrolidine-2S-carboxylic acid [2-(2-trifluoromethyl-phenyl)-6-(4-trifluoromethyl-phenyl)-pyrimidin-4-ylmethyl]-amide]
IC50: 11 nM

Second part, the molecule after the results:

IC50: 923 nM
SMILES: CC(NC(=O)[C@@H]1CCCN1S(=O)(=O)c1ccc(F)cc1)c1cc(-c2ccc(C(F)(F)F)cc2)ncn1 (single isomer, unassigned) [Example 182, (1R*,2S)-1-(4-Fluoro-benzenesulfonyl)-pyrrolidine-2-carboxylic acid {1-[6-(4-trifluoromethyl-phenyl)-pyrimidin-4-yl]-ethyl}-amide]

IC50: 40 nM
SMILES: COc1nc(CNC(=O)[C@@H]2CCCN2S(=O)(=O)c2ccc(F)cc2)cc(-c2ccc(C(F)(F)F)cc2)n1 [Example 2, 1-(4-Fluoro-benzenesulfonyl)-pyrrolidine-2S-carboxylic acid [2-methoxy-6-(4-trifluoromethyl-phenyl)-pyrimidin-4-ylmethyl]-amide]

IC50: 9 nM
SMILES: O=C(NCc1cc(-c2ccc(C(F)(F)F)cc2)nc(-c2cccc(C(F)(F)F)c2)n1)[C@@H]1CCCN1S(=O)(=O)c1ccc(F)cc1 [Example 5, 1-(4-Fluoro-benzenesulfonyl)-pyrrolidine-2S-carboxylic acid [2-(3-trifluoromethyl-phenyl)-6-(4-trifluoromethyl-phenyl)-pyrimidin-4-ylmethyl]-amide]

IC50: 229 nM
SMILES: O=C(NCc1cc(-c2ccc(C(F)(F)F)cc2)nc(-c2ccncc2)n1)[C@@H]1CCCN1S(=O)(=O)c1ccc(F)cc1 [Example 7, 1-(4-Fluoro-benzenesulfonyl)-pyrrolidine-2S-carboxylic acid [2-pyridin-4-yl-6-(4-trifluoromethyl-phenyl)-pyrimidin-4-ylmethyl]-amide]

IC50: 475 nM
SMILES: Nc1nc(CNC(=O)[C@@H]2CCCN2S(=O)(=O)c2ccc(F)cc2)cc(-c2ccc(C(F)(F)F)cc2)n1 [Example 8, 1-(4-Fluoro-benzenesulfonyl)-pyrrolidine-2S-carboxylic acid [2-amino-6-(4-trifluoromethyl-phenyl)-pyrimidin-4-ylmethyl]-amide]
